Measurements: ChEMBL document CHEMBL5154860 (J Med Chem, 2022)

Experiments:
in vivo [1] = conditions: Sprague-Dawley, rat, brain / plasma, iv, 0.2 mg/kg
in vivo [2] = conditions: Sprague-Dawley, rat, brain / plasma, iv, 0.2 mg/kg; remark: listed apart in the source
in vitro [3] = conditions: human, liver microsomes
in vivo [4] = conditions: Sprague-Dawley, rat, iv, 1 mg/kg
in vivo [5] = conditions: Sprague-Dawley, rat, iv, 1 mg/kg; remark: listed apart in the source
in vivo [6] = conditions: Sprague-Dawley, rat, iv, 1 mg/kg; remark: listed apart in the source
in vivo [7] = conditions: Sprague-Dawley, rat, iv, 1 mg/kg; remark: listed apart in the source
in vivo [8] = conditions: Sprague-Dawley, rat, iv, 1 mg/kg; remark: listed apart in the source
in vivo [9] = conditions: Sprague-Dawley, rat, po, 10 mg/kg
in vivo [10] = conditions: Sprague-Dawley, rat, po, 10 mg/kg; remark: listed apart in the source
in vivo [11] = conditions: Sprague-Dawley, rat, po, 10 mg/kg; remark: listed apart in the source
in vivo [12] = conditions: Sprague-Dawley, rat, po, 10 mg/kg; remark: listed apart in the source
in vitro [13] = conditions: Sprague-Dawley, rat, liver microsomes
in vitro [14] = conditions: dog, MDCK-MDR1

Row | Structure (SMILES) | Kp (in vivo [1]) | Kp uu (in vivo [2]) | further results
1 | Cn1ccnc1SCC1CCN(S(=O)(=O)c2ccc3ncsc3c2)CC1 | < 0.48 | < 0.5 | 
2 | Cn1ccnc1SCC1CCN(S(=O)(=O)c2ccc3c(c2)CCO3)CC1 | 0.08 | 0.11 | CLint scaled at […], 1 µM (in vitro [3]): 1270 mL/min/kg
3 | O=S(=O)(c1ccc2c(c1)CCO2)N1CCC(CSc2nccs2)CC1 | 0.27 | 0.23 | 
4 | Cc1cn(C)c(SCC2CCN(S(=O)(=O)c3ccc4c(c3)CCO4)CC2)n1 | 0.07 | 0.19 | 
5 | Cc1nc(SCC2CCN(S(=O)(=O)c3ccc4c(c3)CCO4)CC2)n(C)c1C | 0.22 | 0.32 | 
6 | Cn1ccnc1SCC1CCN(S(=O)(=O)c2ccc3c(c2)OCO3)CC1 | 0.53 | 1.88 | 
7 | Cn1ccnc1SC[C@H]1CCN(S(=O)(=O)c2ccc3c(c2)CCO3)C[C@@H]1F |  |  | half-life at 24 h (in vivo [4]): 14.6 h; MRT at 24 h (in vivo [5]): 10.7 h; clearance at 24 h (in vivo [6]): 56.5 mL/min/kg; Vd at 24 h (in vivo [7]): 36.6 L/kg; AUC at 24 h (in vivo [8]): 301 ng·h/mL; Cmax at 24 h (in vivo [9]): 433 ng/mL; Tmax at 24 h (in vivo [10]): 0.25 h; AUC at 24 h (in vivo [11]): 830 ng·h/mL; bioavailability at 24 h (in vivo [12]): 27.6%; CLint scaled at […], 1 µM (in vitro [13]): 1770 mL/min/kg; CLint scaled at […], 1 µM (in vitro [3]): 318 mL/min/kg; Papp (in vitro [14]): 26.8 ×10⁻⁶ cm/s
8 | Cc1nnc(SCC2CCN(S(=O)(=O)c3ccc4c(c3)CCO4)CC2)s1 | 1.25 | 1.1 | 
9 | CC(Sc1nccn1C)C1CCN(S(=O)(=O)c2ccc3c(c2)CCO3)CC1 (centres undefined) | 0.22 | 0.29 | 
